Assay results: patent US8987285B2, “Pharmaceutical compositions, dosage forms and new forms of the compound of formula (I), and methods of use thereof” (Portola Pharmaceuticals, Inc., priority 2010, dated 2015)
Several values for one entry are separate records, joined by “and”; a condition that tells them apart may be missing. Identical values can stand only once.

Tests used:
[1] = Super-saturation measurement (CheqSol): intrinsic and kinetic solubility; type: physicochemical; details: kinetic solubility divided by intrinsic solubility
Source text: Anal. Chem. 2005, 77(4), 983-990; 2—Box, K J. Völgyi, G. Baka, E. Stuart, M. Takács-Novák, K. Corner, J E A. Equilibrium vs. kinetic measurements of aqueous solubility, and the ability of compounds to supersaturate in solution—a validation study. J. Pharm. Sci. 2006, 95, 1298-1307; 3—Sköld, C. Winiwarter, S. Johan Wernevik, J. Bergström, F. Engström, L. Allen, R. Box, K. Corner, J. Mole, J. Hallberg, A. Lennernäs, H. Lundstedt, T. Ungell, A-L. Karlén, A. Presentation of a Structurally Diverse and Commercially Available Drug Data Set for Correlation and Benchmarking Studies. J. Med. Chem. 2006, 49(23), 6660-6671;
. Med. Chem.; 2007, 50 (5), 979-983; 5—Llinás, A. Box, K J. Burley, J C. Glen, R C. Goodman, J M. J. A new method for the reproducible generation of polymorphs: two forms of Sulindac with very different solubilities. […] 6—Box K et al, Using Measured pKa, Log P and Solubility to Investigate Supersaturation and Predict BCS Class, Current Drug Metabolism, 2008, 9, 869-878]
1—kinetic solubility is the concentration of a compound in solution at the time when an induced precipitate first appears
2—equilibrium solubility (also called thermodynamic solubility) is the concentration of compound in a saturated solution when excess solid is present, and solution and solid are at equilibrium
3—intrinsic solubility [Hörter, D.; Dressman, J. B. Adv. Drug Deliv. Rev., 1997, 25, 3-14] is the equilibrium solubility of the free acid or base form of an ionisable compound at a pH where it is fully un-ionized
The super-saturation ratio is calculated as the ratio of kinetic solubility divided by the Intrinsic Solubility.

[2] = Comparison of pharmacokinetic effects (AUC, bioavailability) in human studies for polymorphic form B, A and D; type: in vivo; details: polymorphs of the potassium salt
Protocol: Comparison of pharmacokinetic effects in human studies for polymorphic form B, A and D of the potassium salt of elinogrel.
Therefore the polymorphic form does have a strong impact on the bioavailability of the drug.
The bioavailability is measured in a human study according to FDA guidelines for conducting bioavailability studies. The area under the curve (AUC) of elinogrel potassium salt polymorph.

[3] = Saturation solubility, shake-flask with UV quantification; type: physicochemical; details: listed as The compound of formula (I)
Protocol: The FaSSIF and FeSSIF solutions were prepared using Phares SIF powder according to the formulation instructions and the SGF solution was prepared using the guidelines provided. […] The pH and temperature of the supernatant were measured on a SiriusT3 instrument.

[4] = Wettability: contact angle measurement with water on pressed powder; type: physicochemical; details: for surface hydrophobilicity from contact angle: critical angle around 50° (>50° hydrophob <50° hydrophil); for Contact angle: water, in ° (unit assumed)
Protocol: Contact angel instrument: EasyDrop DSA15E (Krüss, Hamburg, Germany)
Syringe: NE44, diameter of needle 0.5 mm (Krüss, Hamburg, Germany)
The powder was pressed (approx 50 mg powder, 3 tons, 2 min) in tablets and analyzed by contact angle measurement. The angel between the solid and the liquid is measured after 0 and up to 60 seconds using water.
All determinations used the above method and the limit for the standards measurements are well within the given limits.

[5] = Relative thermodynamic stability: cross-seeding, suspensions equilibrated, solid analysed by X-ray powder diffraction; type: physicochemical
Protocol: The relative thermodynamic stability of the anhydrous form poly-D in comparison with the known Forms A and B of the compound of formula (I) was assessed by cross-seeding experiments, where mixtures of the anhydrous form poly-D and Form A and mixtures of the anhydrous form poly-D and Form B were separately suspended in water, an organic solvent or mixtures of water and organic solvents. The suspension was then equilibrated at various temperatures for several days. The solid parts were then isolated by filtration and analysed by X-ray powder diffraction.

[6] = Pharmacokinetic Study 1: FMI tablets fasted/fed versus reference IR capsule, crossover, healthy adult volunteers; type: in vivo, human; details: high fat meal versus fasted, FMI tablets
Protocol: This was an open label, randomized, four-period, incomplete crossover, single center study in healthy adult volunteers. There were 4 treatments in the study: 3 doses of the FMI (given fasting or fed following a high-fat breakfast) and one reference IR capsule (given fed after a typical breakfast). The term “FMI” refers to the dosage form of Example 7 (30 mg FMI) or Example 8 (75 mg FMI).
Each subject was randomized to 1 of 18 treatment sequences, each with 4 treatment periods (Table 27). The first treatment period consisted of 1 of the 3 doses of FMI given fed, and treatment periods 2 to 4 consisted of 1 dose of IR capsule (fed) and 2 of the 3 doses of the FMI given fasted. […] Each subject therefore had 2 fasting treatments with the FMI formulation, 1 fed treatment with the FMI formulation and a reference treatment (IR capsule). Seventy two subjects enrolled and were dosed in the study with 70 completers.
The study consisted of a 28-day screening period, four baseline periods (one before each treatment period), four treatment periods with a wash out period of a minimum of 5 days, followed by a study completion evaluation approximately 72 hours after the last drug administration. Subjects who met the eligibility criteria at screening were admitted to baseline evaluations. All baseline safety evaluation results were available prior to dosing.
For fasted administration, elinogrel was administered in the morning, following an overnight fast of at least 10 hours. Subjects continued to fast until 4 hours post-dose. For fed administration of FMI tablets, elinogrel was administered in the morning, within 30 minutes of a high fat breakfast (approximately 1000 calories). Subjects continued to fast until 4 hours post-dose. For fed administration of the reference (IR capsule), it was administered in the morning, within 30 minutes of a typical breakfast (approximately 500 calories). Subjects continued to fast until 4 hours post-dose.
Subjects were admitted to the study site approximately 12 hours prior to dosing in each period for baseline evaluations. Following a single dose of elinogrel, PK assessments were taken up to 48 hours post dose and safety assessments were made for up to 72 hours.
Subjects were domiciled for 24 hours post dosing for PK sample collection, at which time they were discharged from the study site. Subjects returned on the following 2 mornings for 48 hour PK and 72 hour safety samples. Following the 72 hour safety assessments of treatment period 4 (or in the case of subject discontinuation) subjects underwent study completion evaluations and were discharged from the study. […].
This was a three-period, four-treatment crossover study design with an add-on food effect period (Period 1).
Treatment 1 (T1)=elinogrel 30 mg FMI dose fasting
Treatment 2 (T2)=elinogrel 75 mg FMI dose fasting
Treatment 3 (T3)=elinogrel 150 mg FMI dose fasting
Reference (R)=elinogrel 150 mg IR capsule dose fed (typical breakfast); Example 6 (Reference)
Fed treatment 1 (F1)=elinogrel 30 mg FMI dose fed (high fat breakfast)
Fed treatment 2 (F2)=elinogrel 75 mg FMI dose fed (high fat breakfast)
Fed treatment 3 (F3)=elinogrel 150 mg FMI dose fed (high fat breakfast)
Subjects will received the following treatments in a randomized order: • Treatment (T1, F1) with IR (IR=immediate release) tablet of Example 7 containing pH-modifying alkalizing agent, 30 mg in fasted and fed state. • Treatment (T2, F2) with IR (IR=immediate release) tablet of Example 8 containing pH-modifying alkalizing agent, 75 mg in fasted and fed state • Treatment (R) with 2×IR (IR=immediate release) capsule of Example 6 (Reference): 2×75 mg (150 mg) in fed state. • Treatment (T3, F3) with 2×IR (IR=immediate release) tablet of Example 8 containing pH-modifying alkalizing agent, 2×75 mg (150 mg) in fasted and fed state.
To evaluate the food effect, the geometric mean ratio for PK parameters of the fed versus fasted for each dose level and its 90% CI was estimated as shown in Table 29 below.

`CNc1cc2[nH]c(=O)n(-c3ccc(NC(=O)[N-]S(=O)(=O)c4ccc(Cl)s4)cc3)c(=O)c2cc1F.[K+]` [Form B] gave a ratio super saturation ([1]; listed as K-salt-Form B) of 363, a ratio super saturation ([1]; listed as polymorph B of the compound of formula (I)) of 363 and an AUC ([2]; human, plasma, oral, 150 mg) of 27600 ng·h/mL. For the same compound, the Saturation solubility ([3]; FaSSIF pH 6.5-1w, mean N = 2, form B) was 132.50 µg/mL, the “final pH measured of the supernatant” value ([3]; FaSSIF pH 6.5-1w, form B) was 6.97 and the Saturation solubility ([3]; FeSSIF pH 5.0-1w, mean N = 2, form B) was 2.49 µg/mL. For the same compound, the “final pH measured of the supernatant” value ([3]; FeSSIF pH 5.0-1w, form B) was 5.16, the Saturation solubility ([3]; Na Phosphate pH 6.8, mean N = 2, form B) was 25.95 µg/mL and the “final pH measured of the supernatant” value ([3]; Na Phosphate pH 6.8, form B) was 7.02. The Saturation solubility ([3]; Na-Acetate pH 4.5, mean N = 2, form B) was 0.40 µg/mL, the “final pH measured of the supernatant” value ([3]; Na-Acetate pH 4.5, form B) was 4.81 and the Saturation solubility ([3]; SGF pH 2.1, mean N = 2, form B) was 19.14 µg/mL. For the same compound, the “final pH measured of the supernatant” value ([3]; SGF pH 2.1, form B) was 5.05, the “surface hydrophobilicity from contact angle” value ([4]; listed as polymorph B) was “hydrophob” and the Contact angle ([4]; 0 sec, listed as B) was 79.7 and 72.4. For the same compound, the Contact angle ([4]; 30 sec, listed as B) was 55.2 and 54.6 and the Contact angle ([4]; 60 sec, listed as B) was 52.8 and 53.5.
For `CNc1cc2[nH]c(=O)n(-c3ccc(NC(=O)[N-]S(=O)(=O)c4ccc(Cl)s4)cc3)c(=O)c2cc1F.[K+]` [Form poly-D], the “solid form after equilibration (XRPD)” value ([5]; MeOH, 25° C./4 days) was “No change”, the “solid form after equilibration (XRPD)” value ([5]; MeOH, 50° C./3 days) was “No change” and the “solid form after equilibration (XRPD)” value ([5]; MeOH/water 1:1 v/v, 25° C./4 days) was “No change”. The “solid form after equilibration (XRPD)” value ([5]; MeOH/water 1:1 v/v, 50° C./3 days) was “No change”, the “solid form after equilibration (XRPD)” value ([5]; MeOH/water 1:2 v/v, 25° C./4 days) was “No change” and the “solid form after equilibration (XRPD)” value ([5]; MeOH/water 1:2 v/v, 50° C./3 days) was “No change”. For the same compound, the “solid form after equilibration (XRPD)” value ([5]; MeOH/water 2:1 v/v, 25° C./4 days) was “No change”, the “solid form after equilibration (XRPD)” value ([5]; MeOH/water 2:1 v/v, 50° C./3 days) was “No change” and the “solid form after equilibration (XRPD)” value ([5]; water, 25° C./4 days) was “No change”. The “solid form after equilibration (XRPD)” value ([5]; water, 50° C./3 days) was “No change”, the “AUC (bioavailability)” value ([2]; 150 mg dose, listed as polymorph D, potassium salt) was 35227 ng·h/mL and the food effect [6] was “significant negative food effect”. The Saturation solubility ([3]; FaSSIF pH 6.5-1w, mean N = 2, form poly-D, potassium salt) was 166.50 µg/mL, the “final pH measured of the supernatant” value ([3]; FaSSIF pH 6.5-1w, form poly-D, potassium salt) was 7.00 and the Saturation solubility ([3]; FeSSIF pH 5.0-1w, mean N = 2, form poly-D, potassium salt) was 6.94 µg/mL. The “final pH measured of the supernatant” value ([3]; FeSSIF pH 5.0-1w, form poly-D, potassium salt) was 5.17, the Saturation solubility ([3]; Na Phosphate pH 6.8, mean N = 2, form poly-D, potassium salt) was 94.55 µg/mL and the “final pH measured of the supernatant” value ([3]; Na Phosphate pH 6.8, form poly-D, potassium salt) was 7.08. The Saturation solubility ([3]; Na-Acetate pH 4.5, mean N = 2, form poly-D, potassium salt) was 0.86 µg/mL, the “final pH measured of the supernatant” value ([3]; Na-Acetate pH 4.5, form poly-D, potassium salt) was 4.82 and the Saturation solubility ([3]; SGF pH 2.1, mean N = 2, form poly-D, potassium salt) was 46.10 µg/mL. The “final pH measured of the supernatant” value ([3]; SGF pH 2.1, form poly-D, potassium salt) was 6.34, the “surface hydrophobilicity from contact angle” value ([4]; listed as polymorph poly-D, potassium salt) was “hydrophilic” and the Contact angle ([4]; 0 sec, potassium salt) was 55.7 and 78.1 and 53.3. The Contact angle ([4]; 10 sec, potassium salt) was 27.7 and 33.4 and 28.2, the Contact angle ([4]; 20 sec, potassium salt) was 16.1 and 21.7 and 22.9 and the Contact angle ([4]; 30 sec, potassium salt) was 20.6. It also gave a Contact angle ([4]; 60 sec, potassium salt) of 15.2.
